The numbers were not newly measured in US12606719B2, “Methods and compositions comprising biodegradable cyanoacrylates” (FEMASYS, INC., priority 2017, dated 2026), which cites them from elsewhere.

The conditions of this data set: versus cyanoacrylates that degrade by chain scission.

As to methoxypropyl cyanoacrylate, the hydrophilicity result is on record as “more hydrophilic”.
